The text below walks through data of PMC9962964, “^68Ga-Labeled [Thz^14]Bombesin(7–14) Analogs: Promising GRPR-Targeting Agonist PET Tracers with Low Pancreas Uptake” (Molecules, 2023).

Read-outs that look alike come from different tables or passages of the source. Where only a bound is given, the exact number is not on record here.

Data set [1] has as its target T1, GRPR (Homo sapiens, UniProt P30550). Put plainly: Fluorometric calcium release assay in PC-3 cells. In kind it is cell-based. Details: generated using GRPR-expressing PC-3 cells; endogenous in cells; host or cells: PC-3 cells. Conditions: 50 nM ligand. Here is the method: Following previously published procedures, 5 × 10^4 PC-3 cells in 100 μL of growth media were seeded per well in a 96-well, clear bottom black plate 24 h before the assay. The loading buffer (100 μL/well), containing a calcium-sensitive dye (FLIPR Calcium 6 assay kit), was added to the 96-well plate. After incubation at 37 °C for 2 h, the plate was placed in a FlexStation 3 microplate reader (Molecular Devices). […] Agonistic/antagonistic properties were determined using the relative fluorescent unit (RFU = max–min).

The conditions of data set [2]: pH 7.4. Here is the method: Briefly, aliquots (2 μL) of the ^68Ga-labeled peptides were added into a 15 mL falcon tube containing 3 mL of n-octanol and 3 mL of 0.1 mol/L DPBS (pH 7.4). The mixture was vortexed for 1 min and then centrifuged at 3000 rpm for 15 min. Samples of the n-octanol (1 mL) and buffer (1 mL) layers were collected and measured in a gamma counter. LogD7.4 was calculated using the following equation: LogD7.4 = log10 [(counts in the n-octanol phase)/(counts in the buffer phase)].

Data set [3] is described as follows: Ex vivo biodistribution in PC-3 tumor-bearing mice. Also on record: species or system NRG mice. The settings on record: mouse, 1 h post-injection; for tissue to tissue ratio at 1 h: male, NRG (NOD.Cg-Rag1^tm1Mom Il2rg^tm1Wjl/SzJ), iv, total radioactivity; for tissue uptake at 1 h: intravenous. As for the experimental part: For biodistribution studies, the mice were injected with the radiotracer (2–4 MBq) via the tail vein as described above. For blocking, the mice were co-injected with 100 μg of [D-Phe^6,Leu-NHEt^13,des-Met^14]Bombesin(6–14). At 1 h post-injection, the mice were anesthetized through isoflurane inhalation and euthanized through CO2 inhalation. Blood was collected through a cardiac puncture, and organs/tissues of interest were collected, weighed, and counted using a Perkin Elmer (Waltham, MA, USA) Wizard2 2480 automatic gamma counter.

The conditions of data set [4]: 15 min post-injection. As for the experimental part:
PET/CT imaging, biodistribution, and in vivo stability studies were conducted on male NOD.Cg-Rag1^tm1Mom Il2rg^tm1Wjl/SzJ (NRG) mice, following previously published procedures. The experiments were conducted according to the guidelines established by the Canadian Council on Animal Care and approved by the Animal Ethics Committee of the University of British Columbia (protocol number A20-0113, approved on 30 September 2020). […] Mice were used for PET/CT imaging and biodistribution studies when the tumor grew to 5–8 mm in diameter over around 4 weeks.
At 15 min post-injection, mice were sedated and euthanized, and urine and blood were collected. The plasma was extracted from whole blood by adding CH3CN (500 μL), vortex, centrifugation, and the separation of supernatant. The plasma and urine samples were analyzed via radio-HPLC using the conditions for quality control of these ^68Ga-labeled radioligands (Table S3).

A further data set deals with PC-3 tumor xenografts. Put plainly: PET/CT imaging of PC-3 tumor xenografts. Format: in vivo, NRG mice. Conditions: 1 h post-injection. As for the experimental part: PET/CT imaging experiments were performed on a Siemens (Knoxville, TN) Inveon micro PET/CT scanner. The tumor-bearing mouse was injected with 3–5 MBq of ^68Ga-labeled tracer through a lateral caudal tail vein under anesthesia, followed by recovery and roaming freely in its cage during the uptake period. At 50 min post-injection, a 10 min CT scan was conducted first for the localization and attenuation correction after segmentation for reconstructing the PET images, followed by a 10 min static PET imaging acquisition.

For data set [5], the target named is T1, GRPR. Details: generated using GRPR-expressing PC-3 cells; endogenous in cells; method as in PMID 21552898, PMID 7809097. Conditions: Schally group; cited from earlier work.
The target of data set [6] is T1, GRPR. Put plainly: In vitro competition binding assay with [125I-Tyr4]Bombesin on PC-3 cells. Details: generated using GRPR-expressing PC-3 cells; endogenous in cells; host or cells: PC-3 cells. Conditions: displacement of [125I-Tyr4]Bombesin, n = 3. As for the experimental part:
PC-3 cells were seeded in 24-well, poly-D-lysine plates at 2 × 10^5 cells/well 24–48 h prior to the assay. […] Then, the plates were incubated for about 60 min at 37 °C. […] Data were analyzed using nonlinear regression (one binding site model for competition assay) with GraphPad (San Diego, CA, USA) Prism 8.4.3 software.
In general terms: Loss of bound radioactivity is the signal in a displacement assay; it reports binding, not function.

T1 sequence (P30550 whole entry): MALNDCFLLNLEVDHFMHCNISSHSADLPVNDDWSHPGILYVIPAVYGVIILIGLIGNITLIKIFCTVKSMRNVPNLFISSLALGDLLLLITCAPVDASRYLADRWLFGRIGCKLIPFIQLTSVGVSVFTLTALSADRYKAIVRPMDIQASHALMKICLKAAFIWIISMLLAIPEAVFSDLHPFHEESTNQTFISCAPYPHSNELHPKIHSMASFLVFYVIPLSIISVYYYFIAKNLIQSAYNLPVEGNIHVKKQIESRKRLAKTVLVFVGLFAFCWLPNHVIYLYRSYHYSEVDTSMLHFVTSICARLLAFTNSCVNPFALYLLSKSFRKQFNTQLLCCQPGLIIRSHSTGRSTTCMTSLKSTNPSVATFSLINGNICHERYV

With `Nc1ncnc2c1ncn2[C@@H]1O[C@H](COP(=O)(O)OP(=O)(O)OP(=O)(O)O)[C@@H](O)[C@H]1O` [ATP, adenosine triphosphate], on GRPR [1], the “Ca2+ efflux (RFU = max–min)” value was 334 ± 39.0 RFUs.
Usually logD stands for the decadic logarithm of the distribution of all forms, ionised or not, between an organic phase and buffer at a given pH. Lower therefore signals lower lipophilicity. `CC(C)C[C@H](NC(=O)[C@H](Cc1c[nH]cn1)NC(=O)CNC(=O)[C@@H](NC(=O)[C@H](C)NC(=O)[C@H](Cc1c[nH]c2ccccc12)NC(=O)[C@H](CCC(N)=O)NC(=O)[C@@H](Cc1ccc2ccccc2c1)NC(=O)CN1CCC(NC(=O)CN2CCN(CC(=O)O)CCN(CC(=O)O)CCN(CC(=O)O)CC2)CC1)C(C)C)C(=O)N1CSC[C@H]1C(N)=O` [[^68Ga]Ga-TacBOMB3, metal not drawn]: the logD in data set [2] is -2.55 ± 0.03. Also, the tissue to tissue ratio at 1 h worked out at 29.9 ± 8.5 in data set [3] (tumor and bone, n = 4, read-out: Tumor/bone uptake ratio); 4.93 ± 0.84 in data set [3] (tumor and intestines, n = 4, read-out: Tumor/intestines uptake ratio); 1.34 ± 0.58 in data set [3] (tumor and kidney, n = 4, read-out: Tumor/kidney uptake ratio); 23.5 ± 9.61 in data set [3] (tumor and muscle, n = 4, read-out: Tumor/muscle uptake ratio); 2.21 ± 0.4 in data set [3] (tumor and pancreas, n = 4, read-out: Tumor/pancreas uptake ratio); 5.61 ± 2.33 in data set [3] (tumor and whole blood, n = 4, read-out: Tumor/blood uptake ratio). Further, the tissue uptake at 1 h in data set [3] (PC-3 tumor, n = 4, read-out: PC-3 tumor uptake) was 5.09 ± 0.54 %ID/g; in data set [3] (blood, n = 4, read-out: Blood uptake), 1.06 ± 0.51 %ID/g; in data set [3] (brain, muscle, fat, bone, liver, stomach, heart, and spleen, read-out: Uptake values for the brain, muscle, fat, bone, liver, stomach, heart, and spleen), less than 1 %ID/g; in data set [3] (fat, n = 4, read-out: Fat uptake), 0.19 ± 0.18 %ID/g; in data set [3] (heart, n = 4, read-out: Heart uptake) it was 0.35 ± 0.18 %ID/g; in data set [3] (intestines, n = 4, read-out: Intestines uptake) it was 1.06 ± 0.26 %ID/g. For the same molecule, the tissue uptake at 1 h is 4.61 ± 2.72 %ID/g in data set [3] (kidneys, n = 4, read-out: Kidneys uptake); 0.65 ± 0.19 %ID/g in data set [3] (liver, n = 4, read-out: Liver uptake); 1.63 ± 0.75 %ID/g in data set [3] (lungs, n = 4, read-out: Lungs uptake); 0.24 ± 0.12 %ID/g in data set [3] (muscle, n = 4, read-out: Muscle uptake); 2.41 ± 0.72 %ID/g in data set [3] (pancreas, n = 4, read-out: Pancreas uptake); 0.5 ± 0.32 %ID/g in data set [3] (spleen, n = 4, read-out: Spleen uptake). Also, the tissue uptake at 1 h in data set [3] (stomach, n = 4, read-out: Stomach uptake) came out at 0.82 ± 0.37 %ID/g; in data set [3] (testes, n = 4, read-out: Testes uptake) it was 0.37 ± 0.06 %ID/g. For the same molecule, the “intact fraction in plasma” value in data set [4] (mouse plasma, n = 3) is 27.3 ± 4.84%. Moreover, the “intact tracer in urine” value in data set [4] (mouse urine) is reported as “no intact”. Also, the “visualization of PC-3 tumor xenografts in PET images” value in the data set with PC-3 tumor xenografts was “clearly visualized”. For the same molecule, the excretion pathway result in the data set on PC-3 tumor xenografts (PET images) was “primarily excreted via the renal pathway”.
As for “D-2-Nal-[Leu^13ψThz^14]Bombesin(7–14) [RC-3965-II]”, the “binding affinity to GRPR” value at GRPR [5] is “picomolar binding affinity”.
In the case of “D-Phe-[Leu^13ψThz^14]Bombesin(7–14) [RC-3950-II]”, at GRPR [5], the “binding affinity to GRPR” value is on record as “picomolar binding affinity”.
Regarding “D-Tpi-[Leu^13ψThz^14]Bombesin(7–14) [RC-3910-II]”, the “binding affinity to GRPR” value on GRPR [5] is listed as “picomolar binding affinity”.
A word on the Ki: it is a measure of affinity in units of concentration, obtained from inhibition or displacement. A low value points to a stronger hold on the target. Turning to “Ga-TacBOMB2: nonradioactive Ga-complexed standard of TacBOMB2 (FQWAVGHLX; Ga-DOTA-Pip (4-amino-(1-carboxymethyl)piperidine) on the N-terminus; residue 1 is D-Phe; X9 = Thz (thiazoline/thiazolidine-4-carboxylic acid, named thiazoline in the text) replacing Met14, normal Leu1)”, the Ki with GRPR [6] came out at 7.62 ± 0.19 nM.
As for “[D-Phe^6,Leu-NHEt^13,des-Met^14]Bombesin(6–14)”, on GRPR [1], the “Ca2+ efflux (RFU = max–min)” value is 25.3 ± 1.92 RFUs.
Regarding bombesin, the “Ca2+ efflux (RFU = max–min)” value on GRPR [1] is 754 ± 38.3 RFUs.
